Experimental findings from patent EP4810052A2, “HCRHR2 SELECTIVE POLYPEPTIDES” (Gubra A/S, priority 2023, dated 2026) are described below.

The target in series [1] is T1, hCRHR2 (Homo sapiens, UniProt Q13324).
T1 sequence (Q13324 1-411): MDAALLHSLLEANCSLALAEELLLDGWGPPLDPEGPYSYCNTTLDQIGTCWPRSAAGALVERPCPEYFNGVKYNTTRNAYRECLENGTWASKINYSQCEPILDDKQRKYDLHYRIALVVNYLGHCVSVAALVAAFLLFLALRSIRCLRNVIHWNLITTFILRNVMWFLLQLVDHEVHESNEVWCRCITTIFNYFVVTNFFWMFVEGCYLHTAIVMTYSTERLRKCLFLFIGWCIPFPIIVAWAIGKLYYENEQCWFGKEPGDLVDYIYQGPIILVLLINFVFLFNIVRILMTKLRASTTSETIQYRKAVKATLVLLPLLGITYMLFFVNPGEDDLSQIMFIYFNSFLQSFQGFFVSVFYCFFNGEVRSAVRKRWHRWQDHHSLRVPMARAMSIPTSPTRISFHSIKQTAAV
Description: HTRF cAMP assay, determination of hCRHR2 potency (peptide libraries 5 conc., purified peptides 11 conc.). In kind it is cell-based. The method in brief:
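Cells: CHO-K1/hCRHR2 stable clone, suspension, freshly thawed. Readout: competitive TR-FRET, anti-cAMP cryptate vs cAMP-d2. Analysis: sigmoid variable-slope nonlinear regression → EC50.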
For orientation: In TR-FRET formats the signal depends on donor and acceptor labels being close together.

The target of series [2] is T2, hCRHR1 (Homo sapiens, UniProt P34998).
T2 sequence (P34998 24-415): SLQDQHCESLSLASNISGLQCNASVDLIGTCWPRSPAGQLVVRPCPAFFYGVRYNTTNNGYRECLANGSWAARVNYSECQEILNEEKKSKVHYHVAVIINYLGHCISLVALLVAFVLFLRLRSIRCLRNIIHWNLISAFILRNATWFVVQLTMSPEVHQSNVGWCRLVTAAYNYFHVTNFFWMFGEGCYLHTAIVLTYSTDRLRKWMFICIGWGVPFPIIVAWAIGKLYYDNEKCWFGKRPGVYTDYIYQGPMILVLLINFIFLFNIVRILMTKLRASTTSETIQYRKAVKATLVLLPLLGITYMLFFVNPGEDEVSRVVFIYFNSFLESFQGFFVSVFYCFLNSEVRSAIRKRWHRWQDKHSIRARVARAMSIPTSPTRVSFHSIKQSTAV
Description: HTRF cAMP assay, determination of hCRHR1 potency (peptide libraries 5 conc., purified peptides 11 conc.). It counts as cell-based. The method in brief:
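Cellular cAMP was read by time-resolved FRET between d2-labelled cAMP and cryptate anti-cAMP antibody. The cells were freshly thawed suspension CHO-K1 cells stably expressing human CRHR1.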

The nature of series [3]: Thioflavin T fibril formation assay of purified peptides. It counts as physicochemical. Further details: key: Amyloid fibril formation detected by an increase in ThT fluorescence was denoted with "Yes"; samples without increasing ThT fluorescence hence not forming amyloid fibrils were denoted "No". The protocol:
Thioflavin T fibril formation assay: Peptides were dissolved as 267 µM in 50 mM phosphate buffer pH 7.5 for 2 h at room temperature on a rocking table. The samples were then divided into three replicates of 80 µl/well and mixed with 2 µl/well Thioflavin T (ThT)to a final concentration of 4 µM ThT in a black 384 well microplate with a clear bottom (Greiner #781096). The plate was inserted in a CLARIOstar Plus microplate reader (BMG Labtech) and fibril formation was measured as an increase in fluorescence emission at 480 nm (excitation at 450 nm) during 96 h at 40°C with cycles of 5 min rest and 5 min linearshaking at700 rpm.
Compounds were dissolved to 200 µM (ca 1.0 mg/ml) in 50 mM phosphate buffer with preparation and ThT assay performed as described in the "General procedure for determination of fibril formation of peptides." above. Furthermore, samples were adjusted to pH values as indicated below. Additional co-formulations of compounds with semaglutide were prepared by dissolving compounds to 200 µM in commercially available semaglutide drug product (Ozempic®); these co-formulations were adjusted to pH 7.4.

Series [4] in a line: Chemical stability of purified peptides (RP-UHPLC main peak purity loss). In kind it is physicochemical. Here is the method:
Chemical stability was tested at a concentration of approximately of 1.0 mg/ml peptide in the following vehicles: 50 mM phosphate buffer pH 7.5. Dissolved samples were incubated for at least 2 h at room temperature on a rocking table. The main peak purity at time zero (T0) was determined using reversed phase chromatography. The samples were incubated at 40°C for 14 days (T14) and 28 days (T28). The samples were analyzed with reversed phase chromatography and size exclusion chromatography.
Reversed Phase chromatography was performed on a Thermo Dionex Ultimate UHPLC system with UV detection at 215 nm) and equipped with a Kinetex column (1.7 µm, C8, 100 Å, 150 x 2.1 mm (00F-4499-AN)). Analysis was performed by gradient elution with buffer A (0.1% TFA in 95:5 H2O:acetonitrile) and buffer B (0.1% TFA in 5:95 H2O: acetonitrile) at a column temperature of 50 °C (gradient used 25-55%B over 40 min. Flowrate was 0.5 mL/min. The main peak purity was determined from the integrated chromatogram as the area under the main peak relative to the total peak area. The purity loss was calculated as the difference between the T0 and T14 time point and/or as the difference between the T0 and T28 time point.
The chemical stability of selected peptides was evaluated at varying pH's at 40° C over 28 days. Samples were prepared and analysed as described in procedure with the addition of pH adjusting samples to the targets indicated below. As a comparator,r commercially available semaglutide drug product (Ozempic®, Novo Nordisk) was included in the sample set.

The conditions of series [5]: pH 7.5.
Description: Solubility was tested in the following vehicles: 100 mM phosphate buffer facilitating a target pH of 6.5, 7.0, and 7.5. Samples were directly dissolved in Mini-UniPrep Syringeless Filter 0.45 µm unit (Whatman). For the desired concentration, such as a concentration of 4000 µM (approximately 20 mg/mL), 1600 nmol peptide was dissolved in 400 µL vehicle. Samples were incubated for at least 1 h at room temperature on a rocking table. The pH was measured and adjusted. Samples were left on the rocking table for an additional hour before a second pH measurement and adjustment. Visual inspection was performed and noted before the filter was pushed. The concentration of peptide in the filtrate was determined using CAD (Charged Aerosol Detection), double determination was done for each sample. The measured concentration was reported in µM. Furthermore, the pH of the filtrate was measured and reported. Peptides with a measured concentration within +/-20% of target concentration are considered fully soluble.
Compounds were dissolved to a nominal concentration of 4000 µM and analysed as described above. Samples with phenol contained 5.0 mg/ml phenol.
[6] abbreviates: Table 5, purified peptides, read-out: hCRHR2 EC50.
Where [7] appears, read: Table 5, purified peptides, read-out: hCRHR1 EC50.

Read-outs that look alike come from different tables or passages of the source. Starred links: 1 amine or outer side, 2 acyl side, 3 side chain; linkers in the order of their positions; H or OH if unused. Non-standard residues stand in square brackets, D forms with d. Residues, ends and D or L forms follow the SMILES beside them. Groups on a side chain read outwards from the residue. *: point of attachment. C20 diacid = O=C(O)CCCCCCCCCCCCCCCCCCC(=O)*; γGlu = O=C(O)[C@H](CCC(=O)[*:2])N[*:1]; Nle = CCCC[C@H](N)C(=O)O; AEEA = NCCOCCOCC(=O)O; Aib = CC(C)(N)C(=O)O

As for `CC[C@H](C)[C@H](N)C(=O)N[C@H](C(=O)N[C@@H](CC(C)C)C(=O)N[C@@H](CO)C(=O)N[C@@H](CC(C)C)C(=O)N[C@@H](CC(=O)O)C(=O)N[C@H](C(=O)N1CCC[C@H]1C(=O)N[C@H](C(=O)NCC(=O)N[C@@H](CC(C)C)C(=O)N[C@@H](CC(C)C)C(=O)N[C@@H](CCC(N)=O)C(=O)N[C@H](C(=O)N[C@@H](CC(C)C)C(=O)N[C@@H](CC(C)C)C(=O)N[C@@H](CCC(=O)O)C(=O)N[C@@H](CCC(N)=O)C(=O)N[C@@H](C)C(=O)N[C@@H](CCCNC(=N)N)C(=O)N[C@@H](C)C(=O)N[C@@H](CCCNC(=N)N)C(=O)N[C@@H](C)C(=O)N[C@@H](C)C(=O)N[C@@H](CCCNC(=N)N)C(=O)N[C@@H](CCC(=O)O)C(=O)N[C@@H](CCC(N)=O)C(=O)N[C@@H](C)C(=O)N[C@@H](CCCCNC(=O)COCCOCCNC(=O)COCCOCCNC(=O)CC[C@H](NC(=O)CC[C@H](NC(=O)CCCCCCCCCCCCCCCCCCC(=O)O)C(=O)O)C(=O)O)C(=O)N[C@H](C(=O)N[C@@H](CC(N)=O)C(=O)N[C@@H](CC(C)C)C(=O)N[C@@H](CCC(=O)O)C(=O)N[C@H](C(=O)N[C@@H](CC(C)C)C(=O)N[C@@H](C)C(=O)N[C@@H](CCC(=O)O)C(=O)N[C@H](C(N)=O)C(C)C)[C@@H](C)CC)[C@@H](C)O)[C@@H](C)CC)[C@@H](C)CC)C(C)C)C(C)C` [SEQ ID NO: 12] (H-IVLSLDVPIGLLQILLEQARARAAREQAK([AEEA-AEEA-γGlu-γGlu-C20 diacid])TNLEILAEV-NH2), the “Selectivity ratio (hCRHR1/ hCRHR2)” value in series [1] (hCRHR1-EC50/hCRHR2-EC50) is given as >1136. The EC50 is 4.4 nM in series [1] (purified peptides, CHO-K1 cells stably expressing hCRHR2, cAMP HTRF, read-out: hCRHR2 EC50) and > 5000 nM in series [2] (purified peptides, CHO-K1 cells stably expressing hCRHR1, cAMP HTRF, read-out: hCRHR1 EC50). Also, in series [3] (pH 7.5, ThT assay), the “Fibrillation (pH 7.5)” value was “No”. Also, the “Chemical stability at pH 7.5 after 14 days at 40°C (% degradation)” value in series [4] (pH 7.5, 40°C, 14 days, first value of cell) is given as -0.6%. Also, in series [4] (pH 7.5, 40°C, 28 days, second value of cell), the “Chemical stability at pH 7.5 after 28 days at 40°C (% degradation)” value is listed as -1.2%. Besides, the “Solubility pH 7.5, target conc. =10 mg/mL (measured mg/mL)” value in series [5] is listed as 9.1 mg/mL.

With `CCCC[C@H](NC(=O)[C@@H](NC(=O)[C@H](CCC(=O)O)NC(=O)[C@H](C)NC(=O)[C@H](CC(N)=O)NC(=O)C(C)(C)NC(=O)[C@H](CCCCNC(=O)COCCOCCNC(=O)COCCOCCNC(=O)CC[C@H](NC(=O)CC[C@H](NC(=O)CCCCCCCCCCCCCCCCCCC(=O)O)C(=O)O)C(=O)O)NC(=O)[C@H](C)NC(=O)[C@H](CCC(N)=O)NC(=O)[C@H](CCC(=O)O)NC(=O)[C@H](CCCNC(=N)N)NC(=O)[C@H](C)NC(=O)[C@H](C)NC(=O)[C@H](CCCNC(=N)N)NC(=O)[C@H](C)NC(=O)[C@H](CCCNC(=N)N)NC(=O)[C@H](C)NC(=O)[C@H](CCC(N)=O)NC(=O)[C@H](CCC(=O)O)NC(=O)[C@H](CC(C)C)NC(=O)[C@H](CC(C)C)NC(=O)[C@@H](NC(=O)[C@H](CCC(N)=O)NC(=O)[C@H](CC(C)C)NC(=O)[C@H](CC(C)C)NC(=O)CNC(=O)[C@@H](NC(=O)[C@@H]1CCCN1C(=O)[C@@H](NC(=O)[C@H](CC(=O)O)NC(=O)[C@H](CC(C)C)NC(=O)[C@H](CO)NC(=O)[C@H](CC(C)C)NC(=O)[C@@H](NC(=O)[C@@H](N)[C@@H](C)CC)C(C)C)C(C)C)[C@@H](C)CC)[C@@H](C)CC)[C@@H](C)CC)C(=O)N[C@@H](C)C(=O)N[C@@H](CCC(=O)O)C(=O)N[C@H](C(N)=O)[C@@H](C)CC` [compound 236] (H-IVLSLDVPIGLLQILLEQARARAAREQAK([AEEA-AEEA-γGlu-γGlu-C20 diacid])[Aib]NAEI[Nle]AEI-NH2), the “Selectivity ratio (hCRHR1/ hCRHR2)” value in series [1] (Table 5) is given as >7463. In addition, the EC50 in series [1] (setting [6]) was 0.67 nM; in series [2] (setting [7]), > 5000 nM. Moreover, the “Fibrillation (pH 7.5)” value in series [3] (pH 7.5) was “No”. The “Chemical stability at pH 7.5 after 14 days at 40°C (% degradation)” value in series [4] (pH 7.5, 14 days, 40°C) is -1%. For the same compound, in series [4] (pH 7.5, 28 days, 40°C), the “Chemical stability at pH 7.5 after 28 days at 40°C (% degradation)” value is recorded as -3%. In addition, the “Solubility pH 7.5, target conc. =10 mg/mL (measured mg/mL)” value in series [5] was 10 mg/mL.

For `CCCC[C@H](NC(=O)[C@@H](NC(=O)[C@H](CCC(=O)O)NC(=O)[C@H](C)NC(=O)[C@H](CC(N)=O)NC(=O)[C@@H](NC(=O)[C@H](CCCCNC(=O)COCCOCCNC(=O)COCCOCCNC(=O)CC[C@H](NC(=O)CC[C@H](NC(=O)CCCCCCCCCCCCCCCCCCC(=O)O)C(=O)O)C(=O)O)NC(=O)[C@H](C)NC(=O)[C@H](CCC(N)=O)NC(=O)[C@H](CCC(=O)O)NC(=O)[C@H](CCCNC(=N)N)NC(=O)[C@H](C)NC(=O)[C@H](C)NC(=O)[C@H](CCCNC(=N)N)NC(=O)[C@H](C)NC(=O)[C@H](CCCNC(=N)N)NC(=O)[C@H](C)NC(=O)[C@H](CCC(N)=O)NC(=O)[C@H](CO)NC(=O)[C@H](CC(C)C)NC(=O)[C@H](CC(C)C)NC(=O)[C@@H](NC(=O)[C@H](CCC(N)=O)NC(=O)[C@H](CC(C)C)NC(=O)[C@H](CC(C)C)NC(=O)CNC(=O)[C@@H](NC(=O)[C@@H]1CCCN1C(=O)[C@@H](NC(=O)[C@H](CC(=O)O)NC(=O)[C@H](CC(C)C)NC(=O)[C@H](CO)NC(=O)[C@H](CC(C)C)NC(=O)[C@@H](NC(=O)[C@@H](N)[C@@H](C)CC)C(C)C)C(C)C)[C@@H](C)CC)[C@@H](C)CC)[C@@H](C)O)[C@@H](C)CC)C(=O)N[C@@H](C)C(=O)N[C@@H](CCC(=O)O)C(=O)N[C@H](C(N)=O)C(C)C` [compound 83] (H-IVLSLDVPIGLLQILLSQARARAAREQAK([AEEA-AEEA-γGlu-γGlu-C20 diacid])TNAEI[Nle]AEV-NH2), in series [1] (Table 5), the “Selectivity ratio (hCRHR1/ hCRHR2)” value is given as >9091. Further, the EC50 in series [1] (setting [6]) is 0.55 nM; in series [1] (library peptides, matched molecular pairs L vs Nle in position X^38, read-out: Potency hCRHR2 pEC50 (converted)), 0.316 nM; in series [2] (setting [7]), > 5000 nM; in series [2] (library peptides, matched molecular pairs L vs Nle in position X^38, read-out: Potency hCRHR1 pEC50 (converted)), 7940 nM. In addition, the “Fibrillation (pH 7.5)” value in series [3] (pH 7.5) was “No”. The “Chemical stability at pH 7.5 after 14 days at 40°C (% degradation)” value in series [4] (pH 7.5, 14 days, 40°C) is given as -3.2%. Further, the “Chemical stability at pH 7.5 after 28 days at 40°C (% degradation)” value in series [4] (pH 7.5, 28 days, 40°C) is reported as -10%. Also, the “Solubility pH 7.5, target conc. =10 mg/mL (measured mg/mL)” value in series [5] turned out to be 9.5 mg/mL.
